System: BMDMs
Experiment: UNC2025 with PS:PLG particle treatment of LPS-inflamed primary macrophages
Type: cell-based, mice
Conditions: LPS 1 ng/mL, PS:PLG 1:10 cell to particle ratio
Description: FIG. 10 depicts TNF-α secreted by BMDMs pre-treated with UNC2025 followed by a co-treatment with LPS (1 ng/mL) and PS:PLG (1:10 cell to particle ratio).
FIG. 11 depicts IL-6 secreted by BMDMs pre-treated with UNC2025 followed by a co-treatment with LPS (1 ng/mL) and PS:PLG (1:10 cell to particle ratio).
FIG. 12 depicts IL-10 secreted by BMDMs pre-treated with UNC2025 followed by a co-treatment with LPS (1 ng/mL) and PS:PLG (1:10 cell to particle ratio).
This effect is not limited to UNC2025 but applicable to a broad range of bioactive molecules including small molecules, nucleic acids, peptides, lipids, glycans, etcetera.

CCCCNc1ncc2c(-c3ccc(CN4CCN(C)CC4)cc3)cn([C@H]3CC[C@H](O)CC3)c2n1 [UNC2025]
anti-inflammatory response of PS:PLG particle treatment with co-delivery of small molecule (TNF-α, IL-6, IL-10): synergistically enhanced

From patent publication US20230301925A1, “PHOSPHOLIPID PRESENTING PARTICLES FOR CELL TARGETING IN THERAPY AND DIAGNOSTICS” (UNIVERSITY OF SOUTH CAROLINA, priority 2022, published 2023)
